The values below come from patent US20260091008A1, “DOUBLE TARGETED CONSTRUCTS TO AFFECT TUMOR KILL” (Cornell University, priority 2016, published 2026).

One data set deals with T1, PSMA on LNCaP cells (Homo sapiens, UniProt Q04609).
T1 construct: host or cells: LNCaP
Description: Multi-concentration competitive binding assay against 99mTc-MIP-1427 on LNCaP cells. The conditions noted are these: non-radioactive ligands vs 1 nM 99mTc-MIP-1427, LNCaP cells, 1 h. The procedure:
Cell Culture. […] Cell culture supplies were from Invitrogen unless otherwise noted.
In vitro determination of IC50. […] Eur J Nucl Med Mol Imaging. 2017; 44, 647-661, incorporated herein by reference. […] The cells were incubated for 1 h with 1 nM ^99mTc-MIP-1427 in serum-free RPMI-1640 medium in the presence of 0.1-10,000 nM test compounds. […] Cells were harvested from the plates and transferred to tubes for radioactive counting using a Packard Cobra II Gamma Counter. IC50 values were determined by non-linear regression using GraphPad Prism software.

The next data set concerns the target HSA (Homo sapiens, UniProt P02768). In words: HSA affinity determination on immobilized-HSA microcolumns. Conditions: HSA microcolumn, phosphate buffer pH 7.4, room temperature. Format: binding. The source says: HSA affinity determination. HSA was immobilized to HPLC-grade silica by the Schiff base method as described previously and were packed into 10 mm×2.1 mm i.d. microcolumns. See Chen J, Hage D S. Quantitative studies of allosteric effects by biointeraction chromatography: analysis of protein binding for low-solubility drugs. Anal Chem. 2006:78:2672-2683 and Matsuda R, Anguizola J, Hoy K S, Hage D S. Analysis of drug-protein interactions by high-performance affinity chromatography: interactions of sulfonyl urea drugs with normal and glycated human serum albumin. Methods Mol Biol. 2015; 1286:255-277, each of which is incorporated herein by reference. The protein content of these columns was approximately 60 mg HSA per gram of silica. See Zheng X, Podariu M, Bi C, Hage D S. Development of enhanced capacity affinity microcolumn by using a hybrid of protein cross-linking/modification and immobilization. J. Chromatogr A. 2015; 1400:82-90, incorporated herein by reference. Control microcolumns were prepared in the same manner but with no HSA being added during the immobilization step. The retention factor for each compound was measured on both an HSA microcolumn and a control column by injecting 5 μL samples that contained approximately 50 μM of the compound in 0.067M potassium phosphate buffer (pH 7.4). All samples were injected in triplicate at room temperature and at 1.0 mL/min, with the phosphate buffer used as the mobile phase. Similar injections were made with samples containing sodium nitrate, which was used as a void volume marker. Elution of the injected compounds was monitored by absorbance detection. The dissociation constant (Kd) for each compound with HSA estimated by using the measured retention factors, after correcting for any observed retention on the control column, along with the estimated content of active HSA in the column, as based on injections made with warfarin and L-tryptophan (i.e., probes for Sudlow sites I and II of HSA). See Chen J, Hage D S. Anal Chem. 2006:78:2672-2683 (cited above) and Joseph K S, Hage D S. The effects of glycation on the binding of human serum albumin to warfarin and L-tryptophan. J Pharm Biomed Anal. 2010; 53:811-818, incorporated herein by reference.

The subject of another data set is LNCaP cell xenografts. In words: Tissue distribution of 131I-labeled compounds in mice bearing LNCaP xenografts. Conditions: male, NCr-nu/nu, mouse, in vivo. The method, then:
Inoculation of mice with xenografts. All animal studies were approved by the Institutional Animal Care and Use Committee of Weill Cornell Medicine and were undertaken in accordance with the guidelines set forth by the USPHS Policy on Humane Care and Use of Laboratory Animals. Animals were housed under standard conditions in approved facilities with 12 h light/dark cycles. Food and water was provided ad libitum throughout the course of the studies. Male inbred athymic nu/nu mice were purchased from The Jackson Laboratory. For inoculation in mice, LNCaP cells were suspended at 4×10^7 cells/mL in a 1:1 mixture of PBS:Matrigel (BD Biosciences). Each mouse was injected in the left flank with 0.25 mL of the cell suspension. The mice were imaged when the tumors reached approximately 200-400 mm^3, while biodistributions were conducted when tumors were in the range 100-400 mm^3.
Tissue Distribution Studies. A quantitative analysis of the tissue distribution of ^131I-labeled compounds was performed in separate groups of male NCr-nu/nu mice bearing LNCaP cell xenografts administered via the tail vein as a bolus injection (approximately 370 kBq (10 μCi)/mouse) in a volume of 0.05-0.1 mL of saline solution containing 2.5% v/v DMSO. The animals (n=3-5/time point) were euthanized by asphyxiation with CO2 at the indicated time points after injection. Tissues, including blood, heart, lungs, liver, spleen, pancreas, kidneys, stomach, large and small intestines (with contents), skeletal muscle, bone, and tumor, were dissected, excised, weighed wet (Sartorius analytical balance), and counted in a Wizard automated […] (Perkin Elmer). A 1% ID/g standard was counted with the tissue samples. Tissue time-radioactivity levels expressed as percent injected dose per gram of tissue (% ID/g) were determined. Blood pharmacokinetics were modeled as a dual compartment system using bi-exponential least-squares regression fit to the data. Regression method was implemented in MATLAB R2015b (MathWorks, Natick, MA).

For data set [1] the following is noted: salivary glands, radioligand therapy; cited from earlier work.
For data set [2] the following is noted: in vivo; cited from earlier work.

“And” between values parts separate entries of the source, which are not always exact repeats. Equal entries are not always repeated.

T1 sequence (Q04609 whole entry): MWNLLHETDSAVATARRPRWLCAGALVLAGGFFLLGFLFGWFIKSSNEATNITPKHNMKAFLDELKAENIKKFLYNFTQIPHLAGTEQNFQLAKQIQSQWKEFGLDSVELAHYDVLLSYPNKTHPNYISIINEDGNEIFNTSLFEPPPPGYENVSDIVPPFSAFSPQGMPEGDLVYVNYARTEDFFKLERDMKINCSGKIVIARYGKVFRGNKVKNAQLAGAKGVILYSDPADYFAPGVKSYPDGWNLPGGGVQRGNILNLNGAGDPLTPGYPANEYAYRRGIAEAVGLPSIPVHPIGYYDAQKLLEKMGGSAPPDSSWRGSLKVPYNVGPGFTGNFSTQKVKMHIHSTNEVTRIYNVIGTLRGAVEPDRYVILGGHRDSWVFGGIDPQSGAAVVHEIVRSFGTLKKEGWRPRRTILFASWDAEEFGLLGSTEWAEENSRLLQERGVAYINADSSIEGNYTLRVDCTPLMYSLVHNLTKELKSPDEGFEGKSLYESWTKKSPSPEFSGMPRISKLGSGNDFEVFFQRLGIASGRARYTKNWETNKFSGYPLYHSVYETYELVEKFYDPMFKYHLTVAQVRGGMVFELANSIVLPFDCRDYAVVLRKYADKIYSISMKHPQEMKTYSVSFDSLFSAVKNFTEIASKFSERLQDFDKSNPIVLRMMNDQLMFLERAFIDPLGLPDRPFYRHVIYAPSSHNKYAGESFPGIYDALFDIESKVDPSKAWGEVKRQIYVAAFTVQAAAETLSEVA
Sequence of HSA (P02768 25-609): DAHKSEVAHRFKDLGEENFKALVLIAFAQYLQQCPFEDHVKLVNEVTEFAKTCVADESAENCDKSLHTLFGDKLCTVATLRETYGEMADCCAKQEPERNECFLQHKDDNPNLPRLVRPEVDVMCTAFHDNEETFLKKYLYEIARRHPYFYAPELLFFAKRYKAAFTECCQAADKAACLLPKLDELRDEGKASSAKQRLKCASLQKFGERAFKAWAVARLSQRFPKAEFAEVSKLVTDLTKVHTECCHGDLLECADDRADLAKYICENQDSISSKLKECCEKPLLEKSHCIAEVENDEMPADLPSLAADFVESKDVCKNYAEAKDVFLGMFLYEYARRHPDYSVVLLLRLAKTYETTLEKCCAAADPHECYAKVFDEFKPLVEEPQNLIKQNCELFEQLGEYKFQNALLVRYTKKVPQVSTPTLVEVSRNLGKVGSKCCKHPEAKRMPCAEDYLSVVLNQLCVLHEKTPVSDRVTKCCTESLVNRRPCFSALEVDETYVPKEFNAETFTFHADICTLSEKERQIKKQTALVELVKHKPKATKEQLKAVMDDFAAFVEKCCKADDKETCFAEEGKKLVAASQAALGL

Usually IC50 stands for the midpoint of a concentration-inhibition curve. In general, Kd refers to the equilibrium constant for the complex coming apart. Low readings indicate higher affinity, high ones lower affinity. Take “(((S)-1-Carboxy-4-(4-(4-iodophenyl)butanamido)pentyl)carbamoyl)-L-glutamic acid [RPS-020]”: the half-inhibitory concentration (IC50) at PSMA on LNCaP cells was 8 nM. The affinity on HSA, expressed as Kd, was 2100 nM.

For the compound `O=C(O)CC[C@H](NC(=O)N[C@@H](CCCCNC(=O)Cc1ccc(I)cc1)C(=O)O)C(=O)O` [RPS-027, (((S)-1-Carboxy-5-(2-(4-iodophenyl)acetamido)pentyl)carbamoyl)-L-glutamic acid], the IC50 on PSMA on LNCaP cells amounted to 15 nM. Moreover, the Kd at HSA is 11000 nM and 11200 nM.

For `O=C(O)CC[C@H](NC(=O)N[C@@H](CCC(=O)N[C@@H](CCCCNC(=O)CCCc1ccc(I)cc1)C(=O)O)C(=O)O)C(=O)O` [RPS-025, (3S,7S,12S)-21-(4-iodophenyl)-5,10,18-trioxo-4,6,11,17-tetraazahenicosane-1,3,7,12-tetracarboxylic acid], on PSMA on LNCaP cells, the 50% inhibitory concentration (IC50) was determined as 15 nM. In addition, at HSA, the Kd was under 1000 nM and the “Kd for HSA” value is given as “could not be eluted from the column”.

For `O=C(O)CCC(NC(=O)N[C@@H](CCCCNC(=O)Nc1ccc([131I])cc1)C(=O)O)C(=O)O` (some centres unmarked) [^131I-RPS-001], in the data set with LNCaP cell xenografts, the “Blood t1/2 for the distribution phase” value amounted to 2.17 h, the “Blood t1/2 for the elimination phase” value stood at 20.38 h, the Initial kidney uptake is over 100 % ID/g and the “Time post injection at which T/K ratio reaches 3” value is on record as about 96 h. In the data set with LNCaP cell xenografts (24 h), this compound had a Kidney uptake of 65.24±22.61 % ID/g, a Large intestine uptake of 2.35±1.26 % ID/g, a Spleen uptake of 2.41±1.40 % ID/g and a Tumor uptake of 19.81±6.16 % ID/g. In the data set on LNCaP cell xenografts (96 h), this compound displayed a Kidney uptake of 2.12±2.47 % ID/g and a Tumor uptake of 10.21±4.30 % ID/g. Moreover, the “Toxicity reported in patients” value in data set [1] is reported as “dose-limiting toxicity to the salivary glands”.

As for “(((S)-1-Carboxy-4-(3-(4-iodophenyl)propanamido)pentyl)carbamoyl)-L-glutamic acid [RPS-022]”, the IC50 on PSMA on LNCaP cells was 10 nM. In addition, the dissociation constant (Kd) on HSA was 22900 nM.

For `O=C(O)CC[C@H](NC(=O)NC(CCCCNC(=O)c1ccc([211At])cc1)C(=O)O)C(=O)O` (stereo partly drawn) [^211At-6, (2S)-2-(3-(1-carboxy-5-(4-^211At-astatobenzamido)pentyl)ureido)-pentanedioic acid], the Nephrotoxicity result in data set [2] is given as “dose-limiting, irreversible nephrotoxicity”.

Turning to `O=C(O)CC[C@H](NC(=O)N[C@@H](CCCCNC(=O)CCCc1ccc(I)cc1)C(=O)O)C(=O)O` [RPS-005, (((S)-1-Carboxy-5-(4-(4-iodophenyl)butanamido)pentyl)carbamoyl)-L-glutamic acid], the IC50 on PSMA on LNCaP cells is 4 nM. At HSA, this compound gave an equilibrium dissociation constant (Kd) of 980 nM.

For the compound `O=C([O-])CC[C@H](NC(=O)N[C@@H](CCCCNC(=O)[C@H](Cc1ccc2ccccc2c1)NC(=O)[C@H]1CC[C@H](CNC(=O)CN2CCN(CC(=O)[O-])CCN(CC(=O)[O-])CCN(CC(=O)[O-])CC2)CC1)C(=O)[O-])C(=O)[O-].[225Ac].[H+].[H+].[H+]` [^225Ac-PSMA-617], the “Toxicity reported in patients” value in data set [1] is “severe and sustained xerostomia”.

In turn, `O=C(O)CCC(NC(=O)NC(CCCCNC(=O)CCCc1ccc([131I])cc1)C(=O)O)C(=O)O` (centres unmarked) [^131I-RPS-005] yielded a Kd at HSA of 890 nM. Further, in the data set on LNCaP cell xenografts (24 h), the Blood activity is 21.35±3.99 % ID/g, the Heart uptake stood at 4.40±0.74 % ID/g, the Kidney uptake came to 39.09±2.96 % ID/g and the Liver uptake worked out at 3.41±0.56 % ID/g. In the data set with LNCaP cell xenografts (24 h), the Lungs uptake is 8.87±0.74 % ID/g and the Tumor uptake was determined as 9.37±1.56 % ID/g. In the data set with LNCaP cell xenografts (96 h), this compound yielded a Blood activity of 15.57±3.98 % ID/g and a Tumor uptake of 10.82±2.64 % ID/g.

On to “(((S)-1-Carboxy-4-(2-(4-iodophenyl)acetamido)pentyl)carbamoyl)-L-glutamic acid [RPS-023]”, for which the 50% inhibitory concentration (IC50) on PSMA on LNCaP cells worked out at 10 nM. At HSA, this compound registered a dissociation constant (Kd) of 53200 nM.

`O=C(O)CC[C@H](NC(=O)N[C@@H](CCCCNC(=O)Nc1ccc(I)cc1)C(=O)O)C(=O)O` [RPS-001, reference compound] displayed a Kd at HSA of 19200 nM.

As to `O=C(O)CC[C@H](NC(=O)N[C@@H](CCCCNC(=O)CCc1ccc(I)cc1)C(=O)O)C(=O)O` [RPS-026, (((S)-1-Carboxy-5-(3-(4-iodophenyl)propanamido)pentyl)carbamoyl)-L-glutamic acid], on PSMA on LNCaP cells, the 50% inhibitory concentration (IC50) worked out at 40 nM. The affinity on HSA, expressed as Kd, was 26600 nM.
